The assay deals with Induced myeloid leukemia cell differentiation protein Mcl-1 (Homo sapiens, UniProt Q07820). Nature of the assay: Fluorescence Polarization Competition Assay. On the procedure:
The assay was carried out in black half-area 96-well NBS plate (Corning), containing 15 nM of MCL-1 (BPS Bioscience), 5 nM of FITC-Bim and 3-fold serial diluted test compounds in a total volume of 50 μL of assay buffer (20 mM HEPES, 50 mM NaCl, 0.002% Tween 20, 1 mM TCEP, and 1% DMSO). The reaction plate was incubated for 1 hour at room temperature. The change of anisotropy is measured with an Envision multimode plate reader (PerkinElmer) at emission wavelength 535 nm. Fluorescence polarization was calculated in mP unit and the percentage inhibition was calculated by % inhibition=100×(mPDMSO−mP)/(mPDMSO−mPPC), in which mPDMSO is the DMSO control, and mPpc is the positive control. IC50 values were determined from a 10-point dose response curve by fitting the percent inhibition against compound concentration using the GraphPad Prism software
Background: Fluorescence polarisation rises when a labelled molecule tumbles more slowly, as on binding a larger partner.

pKi: −log10 of the molar value. Bounds are passed on as bounds.

Broadly, the pKi is the negative decadic logarithm of the Ki, by convention in mol/L.

Sequence of Induced myeloid leukemia cell differentiation protein Mcl-1 (Q07820 whole entry): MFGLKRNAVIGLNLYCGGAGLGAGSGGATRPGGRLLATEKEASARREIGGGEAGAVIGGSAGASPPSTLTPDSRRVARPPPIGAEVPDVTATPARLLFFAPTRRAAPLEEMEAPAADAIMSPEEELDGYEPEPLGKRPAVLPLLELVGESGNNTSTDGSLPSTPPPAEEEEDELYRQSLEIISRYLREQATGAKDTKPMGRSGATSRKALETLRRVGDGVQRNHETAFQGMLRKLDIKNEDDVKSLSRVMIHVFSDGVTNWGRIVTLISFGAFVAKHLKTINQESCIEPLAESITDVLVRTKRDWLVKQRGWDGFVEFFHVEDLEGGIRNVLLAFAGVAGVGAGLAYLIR

In turn, `CN1C/C=C/[C@H](OC(=O)NC2CC2)[C@@H]2CC[C@H]2CN2C[C@@]3(CCCc4cc(Cl)ccc43)COc3ccc(cc32)S(=O)(=O)NC(=O)C1(C)C` had a negative logarithm of the Ki (pKi) of over 6.52.
With `CN(C)CCN(C)C(=O)O[C@H]1/C=C/COC(C)(C)C(=O)NS(=O)(=O)c2ccc3c(c2)N(C[C@@H]2CC[C@H]21)C[C@@]1(CCOc2cc(Cl)ccc21)CO3`, the pKi was over 6.52.
For `CCO[C@@H]1CCN(C(=O)O[C@H]2/C=C/COC(C)(C)C(=O)NS(=O)(=O)c3ccc4c(c3)N(C[C@@H]3CC[C@H]32)C[C@@]2(CCOc3cc(Cl)ccc32)CO4)C1`, the negative logarithm of the Ki (pKi) was over 6.52.
For the compound `COC1CN(C(=O)O[C@H]2/C=C/COC(C)(C)C(=O)NS(=O)(=O)c3ccc4c(c3)N(C[C@@H]3CC[C@H]32)C[C@@]2(CCOc3cc(Cl)ccc32)CO4)C1`, the pKi was over 6.52.
In turn, `CN(C)[C@@H]1CCN(C(=O)O[C@H]2/C=C/COC(C)(C)C(=O)NS(=O)(=O)c3ccc4c(c3)N(C[C@@H]3CC[C@H]32)C[C@@]2(CCOc3cc(Cl)ccc32)CO4)C1` gave a pKi of over 6.52.
In the case of `CN(C)C1CN(C(=O)O[C@H]2/C=C/COC(C)(C)C(=O)NS(=O)(=O)c3ccc4c(c3)N(C[C@@H]3CC[C@H]32)C[C@@]2(CCOc3cc(Cl)ccc32)CO4)C1`, the pKi was over 6.52.
Turning to `CO[C@H]1/C=C/CN2CCC[C@H]2C(=O)NS(=O)(=O)c2ccc3c(c2)N(C[C@@H]2CC[C@H]21)C[C@@]1(CCCc2cc(Cl)ccc21)CO3` [US11130769, Ex. No. 100], the pKi is over 7.00.
For the compound `CO[C@@H]1/C=C/CN(C)C(=O)NS(=O)(=O)c2ccc3c(c2)N(C[C@@H]2CC[C@H]21)C[C@@]1(CCCc2cc(Cl)ccc21)CO3` [US11130769, Ex. No. 108], the pKi is over 7.00.
The same measure for `CN(C)C(=O)O[C@@H]1/C=C/CN(C)C2(CCC2)C(=O)NS(=O)(=O)c2ccc3c(c2)N(C[C@@H]2CC[C@H]21)C[C@@]1(CCCc2cc(Cl)ccc21)CO3` [US11130769, Ex. No. 139]: over 7.00.
The same measure for `CN(C)C[C@H]1CCCN1C(=O)O[C@H]1/C=C/COC(C)(C)C(=O)NS(=O)(=O)c2ccc3c(c2)N(C[C@@H]2CC[C@H]21)C[C@@]1(CCCc2cc(Cl)ccc21)CO3` [US11130769, Ex. No. 169]: over 6.52.
As to `CCOC(=O)N(C)[C@@H]1/C=C/COC(C)(C)C(=O)NS(=O)(=O)c2ccc3c(c2)N(C[C@@H]2CC[C@H]21)C[C@@]1(CCCc2cc(Cl)ccc21)CO3` [US11130769, Ex. No. 252], the pKi was over 7.00.

For the origin of these results see BindingDB's records for patent US11130769 (Prelude Therapeutics, 2021).
